What was measured:
[1] = Rate of formation of aziridine under physiological conditions; type: ADME
[2] = Dissociation constant value of the compound; type: physicochemical; details: read-out: Ki/ki
[3] = tested on: Escherichia coli; experiment: Concentration at which first-order inactivation was observed by the inhibition of Diaminopimelate epimerase

k0 [1]	kik0/Ki [1]	SMILES	Kd [2]	Concentration [3]
0.000079 min⁻¹	0.0000145 uM-1 min**-2	NC(CCCC(N)(CF)C(=O)O)C(=O)O (stereo unspecified)	–	–
–	–	NC(CCCC1(C(=O)O)CN1)C(=O)O (stereo unspecified)	5.5 µM	2 µM
0.011 min⁻¹	0.002 µM-1 min··-2	NC(CCCC(N)(CCl)C(=O)O)C(=O)O (stereo unspecified)	–	–

From ChEMBL document CHEMBL1124870, “2-(4-Amino-4-carboxybutyl)aziridine-2-carboxylic acid. A potent irreversible inhibitor of diaminopimelic acid epimerase. Spontaneous formation from alpha-(halomethyl)diaminopimelic acids” (J Med Chem, 1990)
